Laboratory results published in ChEMBL document CHEMBL1821683, “Synthesis of rhodamine B-benzenesulfonamide conjugates and their inhibitory activity against human α- and bacterial/fungal β-carbonic anhydrases” (Bioorg Med Chem Lett, 2011).

Columns and labels:
Carbonic anhydrase = target: T1, Carbonic anhydrase (Candida albicans (strain SC5314 / ATCC MYA-2876) (Yeast), UniProt Q5AJ71)
T1 sequence (Q5AJ71 whole entry): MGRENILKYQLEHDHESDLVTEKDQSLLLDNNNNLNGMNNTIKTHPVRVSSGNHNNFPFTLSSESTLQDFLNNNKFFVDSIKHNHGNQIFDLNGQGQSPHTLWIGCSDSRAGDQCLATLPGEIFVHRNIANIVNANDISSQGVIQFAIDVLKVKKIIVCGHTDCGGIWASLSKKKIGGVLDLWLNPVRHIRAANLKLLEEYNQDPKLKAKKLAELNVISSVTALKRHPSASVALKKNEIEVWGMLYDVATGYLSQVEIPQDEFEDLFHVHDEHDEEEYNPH

Carbonic anhydrase 12 = Carbonic anhydrase 12 (Homo sapiens, UniProt O43570); test: Inhibition of human carbonic anhydrase 12 preincubated for 15 mins at pH 7.5 by stopped flow CO2 hydration method
Sequence of Carbonic anhydrase 12 (O43570 whole entry): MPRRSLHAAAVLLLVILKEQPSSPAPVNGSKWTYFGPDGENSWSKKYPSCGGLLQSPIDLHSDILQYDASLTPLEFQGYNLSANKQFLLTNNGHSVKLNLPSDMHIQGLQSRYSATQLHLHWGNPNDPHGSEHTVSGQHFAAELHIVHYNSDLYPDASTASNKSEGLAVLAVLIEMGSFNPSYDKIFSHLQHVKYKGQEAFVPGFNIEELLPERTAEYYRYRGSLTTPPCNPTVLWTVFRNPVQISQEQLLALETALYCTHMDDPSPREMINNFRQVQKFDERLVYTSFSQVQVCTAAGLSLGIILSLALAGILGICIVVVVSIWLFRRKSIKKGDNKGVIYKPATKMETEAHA

Carbonic anhydrase 7 = Carbonic anhydrase 7 (Homo sapiens, UniProt P43166)
Sequence of Carbonic anhydrase 7 (P43166 whole entry): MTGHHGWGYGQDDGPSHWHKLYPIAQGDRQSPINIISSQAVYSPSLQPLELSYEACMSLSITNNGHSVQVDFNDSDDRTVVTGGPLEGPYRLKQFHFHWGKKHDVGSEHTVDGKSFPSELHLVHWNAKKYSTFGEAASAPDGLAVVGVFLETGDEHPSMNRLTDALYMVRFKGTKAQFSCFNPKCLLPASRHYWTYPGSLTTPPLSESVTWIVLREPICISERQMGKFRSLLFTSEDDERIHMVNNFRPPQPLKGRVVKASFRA

Carbonic anhydrase 1 = Carbonic anhydrase 1 (Homo sapiens, UniProt P00915)
Sequence of Carbonic anhydrase 1 (P00915 whole entry): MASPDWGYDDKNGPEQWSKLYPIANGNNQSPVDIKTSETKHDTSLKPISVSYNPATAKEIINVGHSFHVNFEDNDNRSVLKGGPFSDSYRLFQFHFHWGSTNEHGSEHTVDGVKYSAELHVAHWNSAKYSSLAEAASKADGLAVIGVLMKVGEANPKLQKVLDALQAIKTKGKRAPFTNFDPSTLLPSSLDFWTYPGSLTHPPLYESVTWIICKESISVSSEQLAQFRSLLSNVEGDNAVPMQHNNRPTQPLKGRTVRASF

Carbonic anhydrase 2 = Carbonic anhydrase 2 (Homo sapiens, UniProt P00918); test: Inhibition of human carbonic anhydrase 2 preincubated for 15 mins at pH 7.5 by stopped flow CO2 hydration method
Carbonic anhydrase 9 = Carbonic anhydrase 9 (Homo sapiens, UniProt Q16790)

Row | SMILES | Ki (Carbonic anhydrase) [µM] | Ki (Carbonic anhydrase 12) [µM] | Ki (Carbonic anhydrase 7) [µM] | Ki (Carbonic anhydrase 1) [µM] | Ki (Carbonic anhydrase 2) [µM] | Ki (Carbonic anhydrase 9) [µM]
1 | CCN(CC)c1ccc2c(c1)Oc1cc(N(CC)CC)ccc1C21c2ccccc2C(=O)N1c1ccc(S(N)(=O)=O)cc1 | 4.99 | 0.0091 | 0.0602 | 0.512 | 0.279 | 
2 | CCN(CC)c1ccc2c(c1)Oc1cc(N(CC)CC)ccc1C21c2ccccc2C(=O)N1c1cccc(S(N)(=O)=O)c1 | 4.1 | 0.0105 | 0.0121 | 0.311 | 0.0215 | 0.024
3 | CCN(CC)c1ccc2c(c1)Oc1cc(N(CC)CC)ccc1C21c2ccccc2C(=O)N1Cc1ccc(S(N)(=O)=O)cc1 | 5.32 | 0.0086 | 0.0349 | 0.714 | 0.98 | 0.0102
4 | CCN(CC)c1ccc2c(c1)Oc1cc(N(CC)CC)ccc1C21c2ccccc2C(=O)N1CCc1ccc(S(N)(=O)=O)cc1 | 4.73 | 0.0253 | 0.0917 | 0.692 | 0.955 | 0.0194
